Results on 19 compounds are retold here after patent US12692254B2, “Benzimidazole inhibitors of PAD enzymes” (BRISTOL-MYERS SQUIBB COMPANY, priority 2018, dated 2026).

Structures are written as SMILES.

In this experiment the target is human PAD4 (hPAD4) (Homo sapiens, UniProt Q9UM07). The experiment can be described thus: RFMS human PAD4 functional assay (rapid-fire mass spectrum). It counts as biochemical. The settings on record: 5 nM hPAD4 enzyme, 250 μM BAEE, 50 μM Calcium; 30 min preincubation, 90 min reaction at 37° C. As for the experimental part: Compounds of the present invention were assayed as inhibitors of PAD4 using the assay protocol described below.
Chain of human PAD4 (hPAD4) (Q9UM07 whole entry): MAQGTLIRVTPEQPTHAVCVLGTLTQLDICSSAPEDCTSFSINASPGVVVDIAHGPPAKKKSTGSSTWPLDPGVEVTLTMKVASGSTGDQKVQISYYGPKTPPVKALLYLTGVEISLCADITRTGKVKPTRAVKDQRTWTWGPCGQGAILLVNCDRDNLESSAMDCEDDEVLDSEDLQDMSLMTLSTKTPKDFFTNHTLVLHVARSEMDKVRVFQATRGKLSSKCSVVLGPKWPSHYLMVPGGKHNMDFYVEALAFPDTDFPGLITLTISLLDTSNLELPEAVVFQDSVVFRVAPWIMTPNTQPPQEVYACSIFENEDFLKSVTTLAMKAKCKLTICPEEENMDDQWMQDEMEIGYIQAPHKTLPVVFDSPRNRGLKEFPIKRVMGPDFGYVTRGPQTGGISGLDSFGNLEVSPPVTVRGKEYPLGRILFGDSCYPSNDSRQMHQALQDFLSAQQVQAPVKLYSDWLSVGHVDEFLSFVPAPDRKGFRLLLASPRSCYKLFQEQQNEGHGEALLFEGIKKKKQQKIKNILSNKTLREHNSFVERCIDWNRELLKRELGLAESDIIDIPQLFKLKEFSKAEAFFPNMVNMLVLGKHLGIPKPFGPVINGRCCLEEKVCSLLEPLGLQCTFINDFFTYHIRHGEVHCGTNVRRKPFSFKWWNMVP
RFMS tinman PAD4 Functional Assay:
Compounds were solubilized in 100% DMSO to achieve a 10 mM compound concentration. Compound stock solutions were stored at RT. A series of dilutions were prepared in DMSO and mixed 8 times with 20 μl, mixing volume. Final top concentration of compound in the assay is 50 μM. […] 1-90 min enzyme/substrate reaction, 30 min reaction with phenyl glyoxal at 37° C. • Stop solution: 40 μl 5% TCA in ACN
0.13 μL of compound solution was added to 13 μL of 10 nM PAD4 in assay buffer. After 30 min 13 μl of 500 μM of BAEE was added in 25 mM hepes, pH 7.5, 5 mM NaCl, 1 mM DTT, 0.2 mg/ml BS A, 0.01% CHAPS, 50 μM Calcium, 5 μM TPEN was added and the reaction incubated for 90 min at 37° C. The enzymatic reaction was quenched by addition of 15 μl of 6.1N TCA, 100% Final Concentration is 20%, 35 μl of 8.5 mM phenyl glyoxal (final concentration 4 mM) is then added and the reaction is incubated for 30 min at 37° C.
After 30 minutes the plates are spun down to remove all precipitate. The enzyme reaction was quenched with an equal volume of methanol containing internal standard (modified citrulline). Samples were loaded onto the Rapid Fire RF300 system (Agilent) wherein they were first sipped for 1000 ms and then directly loaded to a C18 separations cartridge using a mixture of acetonitrile containing 0.01% formic acid for 3000 ms desalting. The flow rate of the mobile phase was 1.5 ml/min.
The dwell time for each transition was set at 200 ms, and the ESI voltage was used at 5500 with a source temperature of 400° C. Extracted ion peaks for each transition were integrated using the Rapid Fire Integrator software. Peak area of analyte was normalized with internal standard).

With `COc1cc(C(=O)N2CC3CCC2[C@@H]3N)cc2nc(-c3cc4cccnc4n3CC3CC3)n(C3CN(S(=O)(=O)C(F)(F)F)C3)c12` (stereo partly drawn) [Example 340, (1R,,4R,7R)-2-{2-[1-(cyclopropylmethyl)-1H-pyrrolo[2,3-b]pyridin-2-yl]-7-methoxy-1-(1-trifluoromethanesulfonylazetidin-3-yl)-1H-1,3-benzodiazole-5-carbonyl}-2-azabicyclo[2.2.1]heptan-7-amine], the concentration for half-maximal inhibition (IC50) is 1.26 µM.
As for `COc1cc(C(=O)N2C[C@H](N)C[C@@H](F)C2)cc2nc(-c3cc4cccnc4n3CC3CC3)n(Cc3cnn(-c4ccc(C#N)cn4)c3)c12` [Example 386, 6-[4-({5-[(3R,5R)-3-amino-5-fluoropiperidine-1-carbonyl]-2-[1-(cyclopropylmethyl)-1H-pyrrolo[2,3-b]pyridin-2-yl]-7-methoxy-1H-1,3-benzodiazol-1-yl}methyl)-1H-pyrazol-1-yl]pyridine-3-carbonitrile], the figure is 0.042 µM.
With `N[C@@H]1[C@@H]2CC[C@H]1N(C(=O)c1cc(Cl)c3c(c1)nc(-c1cc4ccccc4n1CC1CC1)n3CC1CN(C(=O)c3ccncc3)C1)C2` [Example 93, (3-((5-((1R,4R,7R)-7-amino-2-azabicyclo[2.2.1]heptane-2-carbonyl)-7-chloro-2-(1-(cyclopropylmethyl)-1H-indol-2-yl)-1H-benzo[d]imidazol-1-yl)methyl)azetidin-1-yl)(pyridin-4-yl)methanone], the IC50 came to 0.016 µM.
Under `COc1cc(C(=O)N2C[C@H]3CC[C@@H]2[C@@H]3N)cc2nc(-c3cc4cccnc4n3CC3CC3)n(CC3CCN(C(=O)c4ccnc(F)c4)CC3)c12` [Example 197, (1R,4R,7R)-2-{2-[1-(cyclopropylmethyl)-1H-pyrrolo[2,3-b]pyridin-2-yl]-1-{[1-(2-fluoropyridine-4-carbonyl)piperidin-4-yl]methyl}-7-methoxy-1H-1,3-benzodiazole-5-carbonyl}-2-azabicyclo[2.2.1]heptan-7-amine] stands 0.117 µM; under `COc1cc(C(=O)N2CC3CCC2[C@@H]3N)cc2nc(-c3cc4ccccc4n3CC3CC3)n(Cc3cnn(-c4ccc[n+]([O-])c4)c3)c12` (stereo partly drawn) [Example 396, 3-[4-({5-[(7R)-7-amino-2-azabicyclo[2.2.1]heptane-2-carbonyl]-2-[1-(cyclopropylmethyl)-1H-indol-2-yl]-7-methoxy-1H-1,3-benzodiazol-1-yl}methyl)-1H-pyrazol-1-yl]pyridin-1-ium-1-olate], 0.051 µM; under `COc1cc(C(=O)N2C[C@H]3CC[C@@H]2[C@@H]3N)cc2nc(-c3cc4cccnc4n3CC3CC3)n(CC3CN(c4cncs4)C3)c12` [Example 84, (1R,4R,7R)-2-{2-[1-(cyclopropylmethyl)-1H-pyrrolo[2,3-b]pyridin-2-yl]-7-methoxy-1-{[1-(1,3-thiazol-5-yl)azetidin-3-yl]methyl}-1H-1,3-benzodiazole-5-carbonyl}-2-azabicyclo[2.2.1]heptan-7-amine], 0.511 µM.
As for `COc1cc(C(=O)N2CC3CCC2[C@@H]3N)cc2nc(-c3cc4cccnc4n3CC3CC3)n(Cc3cnn(-c4cccnc4)c3)c12` (stereo partly drawn) [Example 395, (7R)-2-{2-[1-(cyclopropylmethyl)-1H-pyrrolo[2,3-b]pyridin-2-yl]-7-methoxy-1-{[1-(pyridin-3-yl)-1H-pyrazol-4-yl]methyl}-1H-1,3-benzodiazole-5-carbonyl}-2-azabicyclo[2.2.1]heptan-7-amine], the figure is 0.05 µM; as for `COc1cc(C(=O)N2CC3CCC2[C@@H]3N)cc2nc(-c3cc4ccccc4n3CC3CC3)n(CC3CC3)c12` (stereo partly drawn) [Example 476, (7R)-2-[1-(cyclopropylmethyl)-2-[1-(cyclopropylmethyl)-1H-indol-2-yl]-7-methoxy-1H-1,3-benzodiazole-5-carbonyl]-2-azabicyclo[2.2.1]heptan-7-amine], 0.1 µM; as for `COc1cncc(-n2cc(Cn3c(-c4cc5cccnc5n4CC4CC4)nc4cc(C(=O)N5CC6CCC5[C@@H]6N)cc(OC)c43)cn2)c1` (stereo partly drawn) [Example 352, (7R)-2-{2-[1-(cyclopropylmethyl)-1H-pyrrolo[2,3-b]pyridin-2-yl]-7-methoxy-1-{[1-(5-methoxypyridin-3-yl)-1H-pyrazol-4-yl]methyl}-1H-1,3-benzodiazole-5-carbonyl}-2-azabicyclo[2.2.1]heptan-7-amine], 0.019 µM.
As for `N[C@@H]1[C@@H]2CC[C@H]1N(C(=O)c1cc(F)c3c(c1)nc(-c1cc4ccccc4n1CC1CC1)n3CC1CN(C(=O)c3ccncc3)C1)C2` [Example 95, (1R,4R,7R)-2-{2-[1-(cyclopropylmethyl)-1H-indol-2-yl]-7-fluoro-1-{[1-(pyridine-4-carbonyl)azetidin-3-yl]methyl}-1H-1,3-benzodiazole-5-carbonyl}-2-azabicyclo[2.2.1]heptan-7-amine], the figure is 0.016 µM.
As for `COc1cc(C(=O)N2CC3CCC2[C@@H]3N)cc2nc(-c3cc4ccccc4n3CC3CC3)n(Cc3cnn(-c4ncccn4)c3)c12` (stereo partly drawn) [Example 402, (7R)-2-{2-[1-(cyclopropylmethyl)-1H-indol-2-yl]-7-methoxy-1-{[1-(pyrimidin-2-yl)-1H-pyrazol-4-yl]methyl}-1H-1,3-benzodiazole-5-carbonyl}-2-azabicyclo[2.2.1]heptan-7-amine], the IC50 worked out at 0.066 µM.
Consider `COc1cc(C(=O)N2CC3CCC2[C@@H]3N)cc2nc(-c3cc4ccccc4n3CC3CC3)n(CC3CCS(=O)(=O)C3)c12` (stereo partly drawn) [Example 264, ((7R)-7-amino-2-azabicyclo[2.2.1]heptan-2-yl)(2-(1-(cyclopropylmethyl)-1H-indol-2-yl)-1-((1,1-dioxidotetrahydrothiophen-3-yl)methyl)-7-methoxy-1H-benzo[d]imidazol-5-yl)methanone], for which the IC50 is 0.057 µM.
As for `COc1cc(C(=O)N2C[C@H]3CC[C@@H]2[C@@H]3N)cc2nc(-c3cc4cccnc4n3CC3CC3)n(CC3CN(c4ccnc(S(C)(=O)=O)n4)C3)c12` [Example 18, (1R,4R,7R)-2-{2-[1-(cyclopropylmethyl)-1H-pyrrolo[2,3-b]pyridin-2-yl]-1-{[1-(2-methanesulfonylpyrimidin-4-yl)azetidin-3-yl]methyl}-7-methoxy-1H-1,3-benzodiazole-5-carbonyl}-2-azabicyclo[2.2.1]heptan-7-amine], the figure is 0.054 µM; as for `COc1cc(C(=O)N2CCC[C@@H](N)C2)cc2nc(-c3cc4ccccc4n3CC3CC3)n(Cc3cnn(C)c3)c12` [Example 267, (3R)-1-{2-[1-(cyclopropylmethyl)-1H-indol-2-yl]-7-methoxy-1-[(1-methyl-1H-pyrazol-4-yl)methyl]-1H-1,3-benzodiazole-5-carbonyl}piperidin-3-amine], 0.098 µM; as for `COc1cc(C(=O)N2C[C@H]3CC[C@@H]2[C@@H]3N)cc2nc(-c3cc4ccccc4n3CC3CC3)n(C[C@H]3CCN(c4ccnc(C5CC5)n4)C3)c12` [Example 227, (1R,4R,7R)-2-{2-[1-(cyclopropylmethyl)-1H-indo1-2-yl]-1-{[(3S)-1-(2-cyclopropylpyrimidin-4-yl)pyrrolidin-3-yl]methyl}-7-methoxy-1H-1,3-benzodiazole-5-carbonyl}-2-azabicyclo[2.2.1]heptan-7-amine], 0.041 µM.
Under `COc1cc(C(=O)N2C[C@H]3CC[C@@H]2[C@@H]3N)cc2nc(-c3cc4ccccc4n3CC3CC3)n(Cc3csc(C)n3)c12` [Example 269, (1R,4R,7R)-2-{2-[1-(cyclopropylmethyl)-1H-indol-2-yl]-7-methoxy-1-[(2-methyl-1,3-thiazol-4-yl)methyl]-1H-1,3-benzodiazole-5-carbonyl}-2-azabicyclo[2.2.1]heptan-7-amine] stands 0.127 µM.
Under `COc1cccc(-n2cc(Cn3c(-c4cc5ccccc5n4CC4CC4)nc4cc(C(=O)N5CC6CCC5[C@@H]6N)cc(OC)c43)cn2)n1` (stereo partly drawn) [Example 378, (7R)-2-{2-[1-(cyclopropylmethyl)-1H-indol-2-yl]-7-methoxy-1-{[1-(6-methoxypyridin-2-yl)-1H-pyrazol-4-yl]methyl}-1H-1,3-benzodiazole-5-carbonyl}-2-azabicyclo[2.2.1]heptan-7-amine] stands 0.037 µM; under `COc1cc(C(=O)N2CC3CCC2[C@@H]3N)cc2nc(-c3cc4cccnc4n3CC3CC3)n(CC3CCN(C(=O)c4ncccn4)CC3)c12` (stereo partly drawn) [Example 236, (1R,4R.,7R)-2-{2-[1-(cyclopropylmethyl)-1H-pyrrolo[2,3-b]pyridin-2-yl]-7-methoxy-1-{[1-(pyrimidine-2-carbonyl)piperidin-4-yl]methyl}-1H-1,3-benzodiazole-5-carbonyl}-2-azabicyclo[2.2.1]heptan-7-amine], 0.402 µM.
`COc1cc(C(=O)N2C[C@H](N)C[C@@H](F)C2)cc2nc(-c3cc4cccnc4n3CC3CC3)n(Cc3cnn(-c4cccn(C)c4=O)c3)c12` [Example 347, 3-[4-({5-[(3R,5R)-3-amino-5-fluoropiperidine-1-carbonyl]-2-[1-(cyclopropyimethyl)-1H-pyrrolo[2,3-b]pyridin-2-yl]-7-methoxy-1H-1,3-benzodiazol-1-yl}methyl)-1H-pyrazol-1-yl]-1-methyl-1,2-dihydropyridin-2-one]: the half-maximal inhibitory concentration (IC50) came out at 0.097 µM.

Broadly, the IC50 is the concentration that inhibits the measured activity by half.
